Results reported in PubChem BioAssay AID330 (DTP/NCI, 2004).
Where “and” joins values, the source holds several entries; their conditions need not be identical. Equal entries are not always repeated. Inconclusive results and toxic doses are left out. The calls were made as follows: active = survival T/C of 150% or more; inactive = T/C below 125% in these data.

Tested on: P388 leukemia ip, CD2F1 mice, survival T/C
Test: NCI In Vivo Anticancer Drug Screen. Data for tumor model P388 Leukemia (intraperitoneal) in CD2F1 (CDF1) mice
Settings: endpoint: median survival time, higher = longer survival
Procedure, shortened: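 Mice carrying the transplanted tumor received test compound or vehicle. Survival was recorded in each group, and the value is the treated-group measurement divided by that of the vehicle-treated control group.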

[1] = dose: 60.0 mg/kg/injection, schedule: Q01DX005 (ip), vehicle: saline with Tween-80
[2] = dose: 120.0 mg/kg/injection, schedule: Q01DX005 (ip), vehicle: saline with Tween-80
[3] = dose: 240.0 mg/kg/injection, schedule: Q01DX005 (ip), vehicle: saline with Tween-80
[4] = dose: 6.25 mg/kg/injection, schedule: Q01DX005 (ip), vehicle: saline with Tween-80
[5] = dose: 12.5 mg/kg/injection, schedule: Q01DX005 (ip), vehicle: saline with Tween-80
[6] = dose: 25.0 mg/kg/injection, schedule: Q01DX005 (ip), vehicle: saline with Tween-80
[7] = dose: 50.0 mg/kg/injection, schedule: Q01DX005 (ip), vehicle: saline with Tween-80

Measured: T/C

CCOC(=O)C(=O)Nc1ccccc1C#N
inactive: dose: 50.0 mg/kg/injection, schedule: Q01DX009 (ip), vehicle: saline + alcohol 105 % of control | dose: 100.0 mg/kg/injection, schedule: Q01DX009 (ip), vehicle: saline + alcohol 99 % of control | dose: 200.0 mg/kg/injection, schedule: Q01DX009 (ip), vehicle: saline + alcohol 101 % of control

COc1ccc(OC)c(NC(=O)CCCC(=O)C(C#N)c2nc3ccccc3s2)c1 (stereo not given)
inactive: [1] 105 % of control | [2] 108 % of control | [3] 100 % of control

CCN(CC)P1(=O)OC(c2ccccc2)=CCN1c1ccc(OC)cc1 (stereo not given)
inactive: dose: 50.0 mg/kg/injection, schedule: Q01DX005 (ip), vehicle: Klucel (hydroxypropylcellulose) (HPC) 102 % of control | dose: 100.0 mg/kg/injection, schedule: Q01DX005 (ip), vehicle: Klucel (hydroxypropylcellulose) (HPC) 110 % of control | dose: 200.0 mg/kg/injection, schedule: Q01DX005 (ip), vehicle: Klucel (hydroxypropylcellulose) (HPC) 103 % of control

CCOC(=O)c1sc2nc(C)cc(C)c2c1N
inactive: [4] 95 % of control | [5] 100 % of control | [6] 98 % of control

CCOC(=O)C1=C(NC(=O)Nc2ccccc2)N(C(=O)Nc2ccccc2)CCC1
inactive: dose: 100.0 mg/kg/injection, schedule: Q04DX003 (ip), vehicle: Klucel (hydroxypropylcellulose) (HPC) 100 % of control | dose: 200.0 mg/kg/injection, schedule: Q04DX003 (ip), vehicle: Klucel (hydroxypropylcellulose) (HPC) 99 % of control | dose: 400.0 mg/kg/injection, schedule: Q04DX003 (ip), vehicle: Klucel (hydroxypropylcellulose) (HPC) 102 % of control

CCC1C(=O)C=C(c2ccccc2)CC1c1ccccc1 (stereo not given)
inactive: [7] 111 % of control | dose: 100.0 mg/kg/injection, schedule: Q01DX005 (ip), vehicle: saline with Tween-80 102 % of control | dose: 200.0 mg/kg/injection, schedule: Q01DX005 (ip), vehicle: saline with Tween-80 93 % of control

CCOC(=O)CNC(=O)NCc1ccccc1
inactive: [1] 108 % of control | [2] 90 % of control | [3] 96 % of control

Nc1nc2ccc(NCc3ccc(C(=O)NC(CCC(=O)O)C(=O)O)cc3)cc2c(=O)[nH]1 (stereo not given)
inactive: [4] 108 % of control | [5] 108 % of control | [6] 103 % of control and 108 % of control | [7] 113 % of control and 117 % of control

ICC1COC(CI)CO1 (stereo not given)
inactive: dose: 100.0 mg/kg/injection, schedule: Q01DX009 (ip), vehicle: saline with Tween-80 100 % of control | dose: 200.0 mg/kg/injection, schedule: Q01DX009 (ip), vehicle: saline with Tween-80 104 % of control | dose: 400.0 mg/kg/injection, schedule: Q01DX009 (ip), vehicle: saline with Tween-80 90 % of control

CCOP(=O)(O)OCC.[Y]
inactive: dose: 100.0 mg/kg/injection, schedule: Q04DX003 (ip), vehicle: saline with Tween-80 93 % of control | dose: 200.0 mg/kg/injection, schedule: Q04DX003 (ip), vehicle: saline with Tween-80 100 % of control | dose: 400.0 mg/kg/injection, schedule: Q04DX003 (ip), vehicle: saline with Tween-80 111 % of control

N#CSc1ccc2nc(N)sc2c1
inactive: dose: 6.25 mg/kg/injection, schedule: Q01DX009 (ip), vehicle: Klucel (hydroxypropylcellulose) (HPC) 111 % of control | dose: 12.5 mg/kg/injection, schedule: Q01DX009 (ip), vehicle: Klucel (hydroxypropylcellulose) (HPC) 111 % of control | dose: 25.0 mg/kg/injection, schedule: Q01DX009 (ip), vehicle: Klucel (hydroxypropylcellulose) (HPC) 104 % of control

COc1ccc(/C=C/Cc2cc3c(cc2O)OCO3)cc1
inactive: [1] 104 % of control | [2] 101 % of control | [3] 101 % of control

Cc1coc2c1C1OC(=O)C3(C/C=C\C(C)C2)OC13 (stereo not given)
inactive: dose: 5625.0 micrograms/kg/injection, schedule: Q01DX005 (ip), vehicle: Klucel (hydroxypropylcellulose) (HPC) 100 % of control | dose: 11250.0 micrograms/kg/injection, schedule: Q01DX005 (ip), vehicle: Klucel (hydroxypropylcellulose) (HPC) 100 % of control | dose: 22500.0 micrograms/kg/injection, schedule: Q01DX005 (ip), vehicle: Klucel (hydroxypropylcellulose) (HPC) 100 % of control
